Patent US20260060239A1, “NATURAL-BASED SALICYLIC ACID POLY(ANHYDRIDE ESTER) HYDROGELS FOR AGRICULTURAL APPLICATIONS” (The Regents of The University of California, priority 2022, published 2026)
Like-named read-outs stand apart in the source and are kept apart here.

How the values were obtained:
micro-tom tomato plants [1] = format: in vivo
Protocol: The Percival chambers were used to mimic environmental conditions.
(§1) All plants received 75 mL right after dose application. […] Death plants were removed from the study.
(§2) At day 48 of the plant cycle, groups correspondent to the drought condition had all the water removed from the tray and were kept in the chamber. Plants under normal conditions had regularly water exchange two times a week until the end of the plant cycle. All plants were closely monitored, and visible observations were recorded, including measurements of plant height, number of leaves, branches, flower buds, flowers, and tomatoed were taken regularly. Clay and fertilizer were applied as needed and dead plants were removed from the study.
The harvest day was determined by the abundant number of red tomatoes: plant measurements were performed as described above. Plants were removed from their pots and clay was washed out of the roots. Tomatoes were harvested, photographed, and measured (diameter, height and mass). Individual plants were also photographed. Root and plant length was recorded, and plant mass was measured using a scale.

micro-tom tomato plants [2] = conditions: for percent plant growth (plant height) during dosage window: FIG. 9A
Protocol: Exogenous application of salicylic acid favors plants under stress by regulating processes such as photosynthesis, membrane permeability, nutrient uptake, transpiration, and the activity of antioxidant enzymes. […] Final measurements of plant height, water content, root length, and tomato production yield were also performed.
Micro-tom was germinated from seeds under hydroponic conditions and grown under vertical farming conditions. Soilless clay media was used, and smart fertilizer was applied. Plants were incubated under normal conditions for 16 days. Seedlings were then transplanted using pre-wet clay and incubated under normal conditions in Percival chambers with abundant water supply and regular water exchanges for an additional 34 days. The Percival chambers were used to mimic environmental conditions. The day and night cycles were set for 16 hour (day) at 25° C. followed by 8 hour (night) at 25° C. CO2 levels were maintained at 410 ppm with 70% relative humidity.
Each plant was labeled, and initial measurements were taken including plant height, total number of leaves, branches, and total number of flower buds, flowers and tomatoes if applicable. Individual group pictures were taken as visual record and first dose was applied accordantly to the group's requirements and schedules (FIG. 7). Dose regimen was similar between all groups with a total duration of 7 days (Dosage Window). Doses were applied at days 0, 2 and 4 of the dosage window. Remaining water in the group trays were removed right before dose applications. Chemicals were applied as a powder directly in the clay surface avoiding contact with the plant. All plants received 75 mL right after dose application. At day 7, remaining water in the trays were removed, final plants measurements and visual observation was recorded. Death plants were removed from the study. Extra clay and fertilizer were added, and DI-water was applied to all plants: 150 mL to normal plants and 50 mL to drought plants to activate the fertilizer.

micro-tom tomato plants [3] = experiment: Treatment window under drought stress conditions (water supply removed); format: in vivo; conditions: for first death under drought: FIG. 12
Protocol: Plants were incubated under normal conditions for 16 days. […] The Percival chambers were used to mimic environmental conditions.
as §1
as §2, with “The treatment window corresponds to the period of time where the groups were exposed to either normal conditions with abundant water supply or to intense drought stress conditions where the water supply was completely removed until plants were found dead. At” for “At”

[4] = 3x: three dosages of 0.05 mmol SA

With `O=C(O)c1ccccc1O` [SA, salicylic acid] the “plants dead at time of harvest” value (micro-tom tomato plants [1]; 1x, across the study, FIG. 15) was “three”, the “total number of red tomatoes per group” value (micro-tom tomato plants [1]; 1x, harvest day, FIG. 19B) was “least number of red tomatoes” and the “percent plant growth after 14 days” value (micro-tom tomato plants [1]; 1x, normal conditions, FIG. 10A) was “lowest percent growth”. The “variation of number of branches during the treatment window” value (micro-tom tomato plants [1]; 1x, normal conditions, FIG. 13B) was “highest variation”, the “roots holding the clay after removal from the pot” value (micro-tom tomato plants [1]; 3x, harvest) was “stronger at holding the clay in place” and the “total number of tomatoes per group” value (micro-tom tomato plants [1]; 3x, harvest day, compared with DI water, FIG. 19A) was “similar”. The “percent plant growth (plant height) during dosage window” value (micro-tom tomato plants [2]; 1x: single dose 0.15 mmol SA or equivalent) was “negligible”, the “variation in the number of branches during dosage window” value (micro-tom tomato plants [2]; 1x: single dose 0.15 mmol, FIG. 9B) was “decrease” and the “stress and deaths after the dosage window” value (micro-tom tomato plants [2]; 1x: single powder dose, 0.15 mmol SA (or equivalent in polymer) per plant, FIG. 8) was “more harmful”. The “percent plant growth (plant height) during dosage window” value (micro-tom tomato plants [2]; [4]) was “smaller than the DI-water control group”, the “stress caused during dosage window” value (micro-tom tomato plants [2]; 3x: three dosages of 0.05 mmol SA, compared with SA 1x) was “less significative” and the “plants mortality right after treatment” value (micro-tom tomato plants [2]; compared with SAPAE) was “higher”. The “first death under drought” value (micro-tom tomato plants [3]; 1x: single dose 0.15 mmol SA or equivalent, day of treatment window) was 17 days, the “first death under drought” value (micro-tom tomato plants [3]; [4]) was 20 days and the “flower production under drought stress” value (micro-tom tomato plants [3]; 3x, 14 days treatment time point, flower buds, no opened flowers, FIG. 11) was “second-best group”.
